Measured values published in article PMC7180948, “New Insights into 4-Anilinoquinazolines as Inhibitors of Cardiac Troponin I–Interacting Kinase (TNNi3K)” (Molecules, 2020).

Assays:
Assay in all cases: biochemical
Set-up in all cases: KINOMEscan competition binding panel (Eurofins DiscoverX), single concentration, % inhibition
Settings in all cases: read-out: 7 at 1 µM % inhibition
[1] = molecular target: T1, ABL1(E255K)-phosphorylated (Homo sapiens, UniProt P00519, E255K)
T1 construct: phosphorylated
Summary of the method: (§1)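 Compounds were submitted at 1 µM to a KINOMEscan assay covering more than 400 human kinases. The screen served to define the selectivity profile.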

ALK(C1156Y) = ALK(C1156Y) (Homo sapiens, UniProt Q9UM73, C1156Y)
Summary of the method: as §1

ASK2 = molecular target: T2, ASK2 (Homo sapiens, UniProt O95382)
T2 construct: gene MAP3K6
Summary of the method: as §1

AURKA = AURKA (Homo sapiens, UniProt O14965)
Summary of the method: as §1

DCAMKL3 = molecular target: T3, DCAMKL3 (Homo sapiens, UniProt Q9C098)
T3 construct: gene DCLK3
Summary of the method: as §1

EGFR(G719C) = EGFR(G719C) (Homo sapiens, UniProt P00533, G719C)
Summary of the method: as §1

EPHA2 = EPHA2 (Homo sapiens, UniProt P29317)
Summary of the method: as §1

ERN1 = ERN1 (Homo sapiens, UniProt O75460)
Summary of the method: as §1

FGFR1 = FGFR1 (Homo sapiens, UniProt P11362)
Summary of the method: as §1

FLT3(D835H) = FLT3(D835H) (Homo sapiens, UniProt P36888, D835H)
Summary of the method: as §1

GRK3 = GRK3 (Homo sapiens, UniProt P35626)
Summary of the method: as §1

IKK-alpha = molecular target: T4, IKK-alpha (Homo sapiens, UniProt O15111)
T4 construct: gene CHUK
Summary of the method: as §1

KIT(V559D,T670I) = KIT(V559D,T670I) (Homo sapiens, UniProt P10721, T670I/V559D)
Summary of the method: as §1

LTK = LTK (Homo sapiens, UniProt P29376)
Summary of the method: as §1

MARK2 = MARK2 (Homo sapiens, UniProt Q7KZI7)
Summary of the method: as §1

MARK4 = MARK4 (Homo sapiens, UniProt Q96L34)
Summary of the method: as §1

MUSK = MUSK (Homo sapiens, UniProt O15146)
Summary of the method: as §1

NDR2 = molecular target: T5, NDR2 (Homo sapiens, UniProt Q9Y2H1)
T5 construct: gene STK38L
Summary of the method: as §1

PCTK2 = molecular target: T6, PCTK2 (Homo sapiens, UniProt Q00537)
T6 construct: gene CDK17
Summary of the method: as §1

PIP5K2C = molecular target: T7, PIP5K2C (Homo sapiens, UniProt Q8TBX8)
T7 construct: gene PIP4K2C
Summary of the method: as §1

RIOK3 = RIOK3 (Homo sapiens, UniProt O14730)
Summary of the method: as §1

TRKC = molecular target: T8, TRKC (Homo sapiens, UniProt Q16288)
T8 construct: gene NTRK3
Summary of the method: as §1

TXK = TXK (Homo sapiens, UniProt P42681)
Summary of the method: as §1

ULK3 = ULK3 (Homo sapiens, UniProt Q6PHR2)
Summary of the method: as §1

T7 sequence (Q8TBX8 whole entry): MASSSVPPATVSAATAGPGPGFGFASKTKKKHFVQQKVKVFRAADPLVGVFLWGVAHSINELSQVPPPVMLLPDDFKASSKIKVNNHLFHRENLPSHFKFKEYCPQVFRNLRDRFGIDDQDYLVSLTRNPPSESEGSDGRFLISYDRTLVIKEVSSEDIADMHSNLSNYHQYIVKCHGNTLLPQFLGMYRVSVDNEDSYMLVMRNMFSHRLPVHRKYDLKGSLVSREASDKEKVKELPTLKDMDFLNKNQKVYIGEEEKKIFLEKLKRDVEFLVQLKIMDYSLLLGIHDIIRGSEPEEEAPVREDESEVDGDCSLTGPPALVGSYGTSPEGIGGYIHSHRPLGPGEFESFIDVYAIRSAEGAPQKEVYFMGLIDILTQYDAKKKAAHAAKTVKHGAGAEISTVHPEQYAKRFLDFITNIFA
T5 sequence (Q9Y2H1 whole entry): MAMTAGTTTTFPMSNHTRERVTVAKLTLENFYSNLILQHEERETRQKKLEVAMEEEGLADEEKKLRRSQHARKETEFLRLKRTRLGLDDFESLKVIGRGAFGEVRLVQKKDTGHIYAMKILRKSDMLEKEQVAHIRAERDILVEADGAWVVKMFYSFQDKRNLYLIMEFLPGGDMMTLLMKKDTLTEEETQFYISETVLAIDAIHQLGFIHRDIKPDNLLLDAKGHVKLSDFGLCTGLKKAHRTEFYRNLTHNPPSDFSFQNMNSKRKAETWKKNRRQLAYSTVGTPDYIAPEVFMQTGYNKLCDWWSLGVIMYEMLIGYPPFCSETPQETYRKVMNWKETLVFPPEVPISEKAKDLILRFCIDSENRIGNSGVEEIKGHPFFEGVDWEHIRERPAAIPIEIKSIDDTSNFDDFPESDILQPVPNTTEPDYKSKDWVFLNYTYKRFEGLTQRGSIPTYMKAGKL
T2 sequence (O95382 whole entry): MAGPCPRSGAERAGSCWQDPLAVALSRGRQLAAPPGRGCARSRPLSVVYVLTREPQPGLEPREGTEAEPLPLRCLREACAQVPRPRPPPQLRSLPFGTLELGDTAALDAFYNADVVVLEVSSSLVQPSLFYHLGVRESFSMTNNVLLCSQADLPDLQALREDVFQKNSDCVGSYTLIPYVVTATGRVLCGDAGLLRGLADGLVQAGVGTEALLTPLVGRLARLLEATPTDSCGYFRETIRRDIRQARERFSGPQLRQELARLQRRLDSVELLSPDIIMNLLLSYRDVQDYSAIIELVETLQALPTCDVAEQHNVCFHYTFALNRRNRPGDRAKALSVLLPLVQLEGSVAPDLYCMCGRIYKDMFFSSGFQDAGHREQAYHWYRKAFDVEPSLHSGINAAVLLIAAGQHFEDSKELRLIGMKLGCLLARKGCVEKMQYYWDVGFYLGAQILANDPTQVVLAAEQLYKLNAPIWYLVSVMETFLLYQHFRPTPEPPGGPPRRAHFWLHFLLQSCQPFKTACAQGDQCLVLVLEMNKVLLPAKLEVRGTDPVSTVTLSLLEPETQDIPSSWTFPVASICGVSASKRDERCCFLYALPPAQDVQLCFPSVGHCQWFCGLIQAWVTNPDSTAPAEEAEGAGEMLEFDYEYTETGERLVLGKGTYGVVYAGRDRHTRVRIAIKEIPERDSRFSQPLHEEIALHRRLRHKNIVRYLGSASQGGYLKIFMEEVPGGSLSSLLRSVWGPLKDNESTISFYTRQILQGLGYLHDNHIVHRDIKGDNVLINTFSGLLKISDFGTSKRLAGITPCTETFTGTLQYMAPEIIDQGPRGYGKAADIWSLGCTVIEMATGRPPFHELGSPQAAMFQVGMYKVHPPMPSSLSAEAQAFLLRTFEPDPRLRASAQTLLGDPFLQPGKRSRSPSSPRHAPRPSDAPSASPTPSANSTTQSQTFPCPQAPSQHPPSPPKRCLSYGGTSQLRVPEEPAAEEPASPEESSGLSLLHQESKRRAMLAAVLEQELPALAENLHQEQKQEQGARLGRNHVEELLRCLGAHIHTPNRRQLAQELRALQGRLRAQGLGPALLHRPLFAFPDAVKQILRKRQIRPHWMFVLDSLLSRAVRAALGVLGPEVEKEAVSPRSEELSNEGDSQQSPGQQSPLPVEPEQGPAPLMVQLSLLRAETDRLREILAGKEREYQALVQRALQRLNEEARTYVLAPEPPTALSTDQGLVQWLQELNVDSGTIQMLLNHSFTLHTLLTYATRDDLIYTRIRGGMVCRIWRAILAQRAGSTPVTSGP
Sequence of MUSK (O15146 whole entry): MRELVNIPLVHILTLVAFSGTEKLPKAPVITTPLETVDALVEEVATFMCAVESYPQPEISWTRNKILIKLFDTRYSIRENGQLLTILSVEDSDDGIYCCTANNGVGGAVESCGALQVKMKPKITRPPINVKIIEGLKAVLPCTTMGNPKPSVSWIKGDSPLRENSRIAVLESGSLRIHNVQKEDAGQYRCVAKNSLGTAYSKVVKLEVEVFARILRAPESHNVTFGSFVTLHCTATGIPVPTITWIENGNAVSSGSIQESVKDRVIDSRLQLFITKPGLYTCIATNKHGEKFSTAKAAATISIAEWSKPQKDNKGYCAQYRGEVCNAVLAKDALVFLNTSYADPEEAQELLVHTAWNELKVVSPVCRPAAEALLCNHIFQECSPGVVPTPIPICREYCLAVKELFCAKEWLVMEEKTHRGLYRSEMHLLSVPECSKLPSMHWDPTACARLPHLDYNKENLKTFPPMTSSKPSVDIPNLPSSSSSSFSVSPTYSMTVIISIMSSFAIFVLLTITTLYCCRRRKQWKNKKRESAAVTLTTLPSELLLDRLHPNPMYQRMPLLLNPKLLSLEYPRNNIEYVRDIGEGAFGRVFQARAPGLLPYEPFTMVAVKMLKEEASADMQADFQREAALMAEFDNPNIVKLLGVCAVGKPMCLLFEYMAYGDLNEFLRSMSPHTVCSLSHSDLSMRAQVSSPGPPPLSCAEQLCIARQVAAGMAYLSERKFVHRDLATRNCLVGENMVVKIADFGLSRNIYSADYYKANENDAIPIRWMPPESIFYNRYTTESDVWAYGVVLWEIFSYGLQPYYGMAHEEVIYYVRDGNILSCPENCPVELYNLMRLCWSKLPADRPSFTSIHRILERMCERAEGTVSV
Sequence of LTK (P29376 whole entry): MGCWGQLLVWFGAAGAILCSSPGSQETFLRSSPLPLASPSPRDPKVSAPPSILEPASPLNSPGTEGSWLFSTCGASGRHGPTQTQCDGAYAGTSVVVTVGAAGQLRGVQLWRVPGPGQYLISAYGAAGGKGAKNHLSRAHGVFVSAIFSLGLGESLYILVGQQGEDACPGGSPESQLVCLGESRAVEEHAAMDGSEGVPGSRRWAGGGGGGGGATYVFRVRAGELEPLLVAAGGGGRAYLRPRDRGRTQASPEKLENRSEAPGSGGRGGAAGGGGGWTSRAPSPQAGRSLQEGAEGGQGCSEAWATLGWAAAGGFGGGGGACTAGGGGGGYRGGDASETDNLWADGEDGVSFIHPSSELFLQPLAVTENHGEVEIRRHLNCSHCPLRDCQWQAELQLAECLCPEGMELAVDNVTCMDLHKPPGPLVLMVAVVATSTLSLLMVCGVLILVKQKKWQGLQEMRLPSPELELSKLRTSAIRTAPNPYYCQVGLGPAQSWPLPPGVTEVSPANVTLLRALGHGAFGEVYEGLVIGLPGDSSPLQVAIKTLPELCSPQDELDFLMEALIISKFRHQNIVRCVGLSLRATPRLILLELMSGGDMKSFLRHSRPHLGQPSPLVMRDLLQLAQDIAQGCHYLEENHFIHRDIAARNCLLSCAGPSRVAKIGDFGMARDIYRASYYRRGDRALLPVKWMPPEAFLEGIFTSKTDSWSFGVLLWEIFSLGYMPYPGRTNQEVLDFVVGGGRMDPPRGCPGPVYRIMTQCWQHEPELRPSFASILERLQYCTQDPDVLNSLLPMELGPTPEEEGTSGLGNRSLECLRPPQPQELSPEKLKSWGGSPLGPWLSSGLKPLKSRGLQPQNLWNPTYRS
Sequence of MARK4 (Q96L34 whole entry): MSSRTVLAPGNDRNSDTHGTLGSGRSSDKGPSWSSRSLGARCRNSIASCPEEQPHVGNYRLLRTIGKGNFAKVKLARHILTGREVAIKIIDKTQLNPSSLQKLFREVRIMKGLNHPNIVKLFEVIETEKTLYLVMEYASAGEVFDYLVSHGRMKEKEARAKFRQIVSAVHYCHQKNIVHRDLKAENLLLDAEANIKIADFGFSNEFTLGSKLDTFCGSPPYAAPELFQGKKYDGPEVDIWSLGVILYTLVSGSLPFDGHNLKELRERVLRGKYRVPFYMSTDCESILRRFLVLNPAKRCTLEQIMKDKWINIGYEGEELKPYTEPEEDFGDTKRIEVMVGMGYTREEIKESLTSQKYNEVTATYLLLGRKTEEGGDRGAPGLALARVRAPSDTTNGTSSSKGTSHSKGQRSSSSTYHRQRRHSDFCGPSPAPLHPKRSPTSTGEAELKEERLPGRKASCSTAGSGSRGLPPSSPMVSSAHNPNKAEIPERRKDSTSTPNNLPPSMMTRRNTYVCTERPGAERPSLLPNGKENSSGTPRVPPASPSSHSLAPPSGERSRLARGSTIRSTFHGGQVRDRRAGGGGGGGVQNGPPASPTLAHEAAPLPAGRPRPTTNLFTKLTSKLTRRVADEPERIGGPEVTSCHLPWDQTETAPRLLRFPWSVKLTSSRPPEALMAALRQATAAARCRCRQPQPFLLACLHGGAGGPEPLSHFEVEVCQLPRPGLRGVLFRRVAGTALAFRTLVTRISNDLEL
Sequence of AURKA (O14965 whole entry): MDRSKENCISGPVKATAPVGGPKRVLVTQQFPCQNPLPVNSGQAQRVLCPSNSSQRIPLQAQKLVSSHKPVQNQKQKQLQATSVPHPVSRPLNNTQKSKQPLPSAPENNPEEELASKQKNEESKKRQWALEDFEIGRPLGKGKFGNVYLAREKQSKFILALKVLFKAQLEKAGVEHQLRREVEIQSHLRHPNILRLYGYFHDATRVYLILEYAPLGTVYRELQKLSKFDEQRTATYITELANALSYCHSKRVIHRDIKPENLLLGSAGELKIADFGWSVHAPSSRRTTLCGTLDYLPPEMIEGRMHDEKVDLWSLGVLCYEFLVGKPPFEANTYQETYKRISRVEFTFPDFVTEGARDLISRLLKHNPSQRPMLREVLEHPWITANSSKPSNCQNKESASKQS

CNS(=O)(=O)c1ccc(N(C)C)c(Nc2ncnc3cc(OC)c(OC)cc23)c1 [compound 7, 3-((6,7-dimethoxyquinazolin-4-yl)amino)-4-(dimethylamino)-N-methylbenzenesulfonamide]
inhibition at 1 µM [1]: 34% | inhibition at 1 µM (ALK(C1156Y)): 0% | inhibition at 1 µM (ASK2): 30% | inhibition at 1 µM (AURKA): 16% | inhibition at 1 µM (DCAMKL3): 15% | inhibition at 1 µM (EGFR(G719C)): 0% | inhibition at 1 µM (EPHA2): 0% | inhibition at 1 µM (ERN1): 0% | inhibition at 1 µM (FGFR1): 20% | inhibition at 1 µM (FLT3(D835H)): 20% | inhibition at 1 µM (GRK3): 38% | inhibition at 1 µM (IKK-alpha): 68% | inhibition at 1 µM (KIT(V559D,T670I)): 8% | inhibition at 1 µM (LTK): 44% | inhibition at 1 µM (MARK2): 0% | inhibition at 1 µM (MARK4): 2% | inhibition at 1 µM (MUSK): 0% | inhibition at 1 µM (NDR2): 9% | inhibition at 1 µM (PCTK2): 0% | inhibition at 1 µM (PIP5K2C): 0% | inhibition at 1 µM (RIOK3): 0% | inhibition at 1 µM (TRKC): 0% | inhibition at 1 µM (TXK): 0% | inhibition at 1 µM (ULK3): 29%
